Source: US20110003883A1, “ALLOSTERIC TRANS-SPLICING GROUP I RIBOZYME WHOSE ACTIVITY OF TARGET-SPECIFIC RNA REPLACEMENT IS CONTROLLED BY THEOPHYLLINE” (Industry-Academic Cooperation Foundation, Dankook University, priority 2008, published 2011)

Tests used:
HT-29 cells = experiment: MTT assay in HT-29 cells (hTERT+); type: cell-based, human; conditions: HT-29 cells with Ad-TheoRib-TK
Experimental: (§1) Cells were seeded in a 96 well plate (TPP) for 1 day, and then infected with Ad-TK (an adenoviral vector expressing a TK gene under the control of a CMV promoter), Ad-Rib-TK, Ad-TheoRib-TK, and Ad-LacZ (an adenoviral vector expressing a LacZ gene under the control of a CMV promoter) adenoviruses, respectively. The used media supplemented with GCV and a chemical (theophylline or caffeine) were exchanged with the same new media from every second to fifth day from the day after the virus infection. The HT-29 strain was seeded at a cell number of 3×10^3/well, the HepG2 strain was seeded at a cell number of 3×10^3/well, the Capan-1 strain was seeded at a cell number of 5×10^3/well, and the IMR90 strain was seeded at a cell number of 5×10^3/well. 5 days after the seeding of the strains, CellTiter 96® AQueous ONE Solution Cell Proliferation Assay (Promega) was added to each cell medium so that it amounted to 20% of the total medium, and the 96 wells were treated with 100 μl of resulting cell medium per well, and measured at a wavelength of 490 nm, using a Microplate reader model 550 (BioRad), to observe cell viability of the cells. […]

Capan-1 cells = experiment: MTT assay in Capan-1 cells (hTERT+); type: cell-based, human; conditions: Capan-1 cells with Ad-TheoRib-TK
Experimental: as §1

HepG2 cells = experiment: MTT assay in HepG2 cells (hTERT+); type: cell-based, human; conditions: HepG2 cells with Ad-TheoRib-TK
Experimental: as §1

theophylline aptamer = conditions: cited from earlier work

SMILES | optimum condition for allosterically induced gene expression: concentration (HT-29 cells) [µM] | optimum condition for allosterically induced gene expression: concentration (Capan-1 cells) [µM] | optimum condition for allosterically induced gene expression: concentration (HepG2 cells) [µM] | affinity to the theophylline aptamer, lower than theophylline (theophylline aptamer) [times]
Nc1nc(O)c2ncn(COC(CO)CO)c2n1 [GCV, ganciclovir] | 10 | 50 | 10 | –
Cn1c(=O)c2[nH]cnc2n(C)c1=O [theophylline] | 100 | 500 | 10 | –
Cn1c(=O)c2c(ncn2C)n(C)c1=O [caffeine] | – | – | – | 1000
